Assay results taken from the supplement of paper PMC4862054.

system: Hs578T; assay: normalised viability (% of control), CellTiter-Blue; higher = more viable cells (about 100 = DMSO control); conditions: 1000 nM; incubation time: 72 h
Summary of the method: (§1)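 Breast cancer cell lines in 20 µl suspension were seeded onto 384-well plates pre-loaded with compound dissolved in 5 µl medium, then incubated 72 h. CellTiter-Blue reagent (2.5 µl) was added for 2 h at 37 °C and fluorescence read at 560/590 nm. Each plate was normalised to vehicle (100) and a positive kill control (0), with Z'-factor quality control. The value is normalised viability at one listed concentration of the series.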

SMILES | normalised viability
C[C@]1(O)C[C@@H](c2nc(-c3ccc4ccc(-c5ccccc5)nc4c3)c3c(N)nccn32)C1 [OSI-906] | 95.2%
COc1cc(F)c(F)c(Nc2ccc(I)cc2F)c1NS(=O)(=O)C1(C[C@H](O)CO)CC1 [RDEA119] | 69.7%

same assay, conditions: 4000 nM; incubation time: 72 h

SMILES | normalised viability
CC[C@@H]1C(=O)OC[C@@H]1Cc1cncn1C [Pilocarpine] | 102%

same assay, conditions: 10000 nM; incubation time: 72 h

SMILES | normalised viability
CC(=O)c1c(C)c2cnc(Nc3ccc(N4CCNCC4)cn3)nc2n(C2CCCC2)c1=O | 71.5%
Oc1ncnc2[nH]ncc12 [Allopurinol] | 106%
O=C1CN2Cc3c(ccc(Cl)c3Cl)N=C2N1 [Anagrelide] | 88.2%
CC1=C2C[C@H]3[C@@H](CC=C4C[C@@H](O)CC[C@@]43C)[C@@H]2CC[C@]12O[C@@H]1C[C@H](C)CN[C@H]1[C@H]2C [Cyclopamine] | 105%
C[C@]1(O)C[C@@H](c2nc(-c3ccc4ccc(-c5ccccc5)nc4c3)c3c(N)nccn32)C1 [OSI-906] | 71.4%
COc1cc(F)c(F)c(Nc2ccc(I)cc2F)c1NS(=O)(=O)C1(C[C@H](O)CO)CC1 [RDEA119] | 54.5%

same assay, conditions: 40000 nM; incubation time: 72 h

SMILES | normalised viability
CC[C@@H]1C(=O)OC[C@@H]1Cc1cncn1C [Pilocarpine] | 108%

system: CAL-120; assay: as above; conditions: 0.99 nM; incubation time: 72 h
Summary of the method: as §1

SMILES | normalised viability
C[C@]12CC[C@@H]3c4ccc(OC(=O)N(CCCl)CCCl)cc4CC[C@H]3[C@@H]1CC[C@@H]2O [Estramustine] | 113%

same assay, conditions: 10 nM; incubation time: 72 h

SMILES | normalised viability
CC(=O)c1c(C)c2cnc(Nc3ccc(N4CCNCC4)cn3)nc2n(C2CCCC2)c1=O | 79.4%
Oc1ncnc2[nH]ncc12 [Allopurinol] | 120%
O=C1CN2Cc3c(ccc(Cl)c3Cl)N=C2N1 [Anagrelide] | 91.3%
CC1=C2C[C@H]3[C@@H](CC=C4C[C@@H](O)CC[C@@]43C)[C@@H]2CC[C@]12O[C@@H]1C[C@H](C)CN[C@H]1[C@H]2C [Cyclopamine] | 98.1%
C[C@]1(O)C[C@@H](c2nc(-c3ccc4ccc(-c5ccccc5)nc4c3)c3c(N)nccn32)C1 [OSI-906] | 96.6%
COc1cc(F)c(F)c(Nc2ccc(I)cc2F)c1NS(=O)(=O)C1(C[C@H](O)CO)CC1 [RDEA119] | 103%

same assay, conditions: 40 nM; incubation time: 72 h

SMILES | normalised viability
CC[C@@H]1C(=O)OC[C@@H]1Cc1cncn1C [Pilocarpine] | 85.2%

same assay, conditions: 99 nM; incubation time: 72 h

SMILES | normalised viability
C[C@]12CC[C@@H]3c4ccc(OC(=O)N(CCCl)CCCl)cc4CC[C@H]3[C@@H]1CC[C@@H]2O [Estramustine] | 107%

same assay, conditions: 990 nM; incubation time: 72 h

SMILES | normalised viability
C[C@]12CC[C@@H]3c4ccc(OC(=O)N(CCCl)CCCl)cc4CC[C@H]3[C@@H]1CC[C@@H]2O [Estramustine] | 105%

same assay, conditions: 1000 nM; incubation time: 72 h

SMILES | normalised viability
CC(=O)c1c(C)c2cnc(Nc3ccc(N4CCNCC4)cn3)nc2n(C2CCCC2)c1=O | 65.2%
Oc1ncnc2[nH]ncc12 [Allopurinol] | 109%
O=C1CN2Cc3c(ccc(Cl)c3Cl)N=C2N1 [Anagrelide] | 91.9%
CC1=C2C[C@H]3[C@@H](CC=C4C[C@@H](O)CC[C@@]43C)[C@@H]2CC[C@]12O[C@@H]1C[C@H](C)CN[C@H]1[C@H]2C [Cyclopamine] | 98.4%
C[C@]1(O)C[C@@H](c2nc(-c3ccc4ccc(-c5ccccc5)nc4c3)c3c(N)nccn32)C1 [OSI-906] | 84.2%
COc1cc(F)c(F)c(Nc2ccc(I)cc2F)c1NS(=O)(=O)C1(C[C@H](O)CO)CC1 [RDEA119] | 64.5%

same assay, conditions: 4000 nM; incubation time: 72 h

SMILES | normalised viability
CC[C@@H]1C(=O)OC[C@@H]1Cc1cncn1C [Pilocarpine] | 107%

same assay, conditions: 10000 nM; incubation time: 72 h

SMILES | normalised viability
CC(=O)c1c(C)c2cnc(Nc3ccc(N4CCNCC4)cn3)nc2n(C2CCCC2)c1=O | 57.4%
Oc1ncnc2[nH]ncc12 [Allopurinol] | 108%
O=C1CN2Cc3c(ccc(Cl)c3Cl)N=C2N1 [Anagrelide] | 86.2%
CC1=C2C[C@H]3[C@@H](CC=C4C[C@@H](O)CC[C@@]43C)[C@@H]2CC[C@]12O[C@@H]1C[C@H](C)CN[C@H]1[C@H]2C [Cyclopamine] | 97.3%
C[C@]1(O)C[C@@H](c2nc(-c3ccc4ccc(-c5ccccc5)nc4c3)c3c(N)nccn32)C1 [OSI-906] | 56.2%
COc1cc(F)c(F)c(Nc2ccc(I)cc2F)c1NS(=O)(=O)C1(C[C@H](O)CO)CC1 [RDEA119] | 47.3%

same assay, conditions: 40000 nM; incubation time: 72 h

SMILES | normalised viability
CC[C@@H]1C(=O)OC[C@@H]1Cc1cncn1C [Pilocarpine] | 113%

system: HCC1937; assay: drug sensitivity score (DSS), CellTox Green (DSS (AUC-based score)); higher = stronger drug effect (viability inhibition or cytotoxicity); extreme values may be limits of the assay; conditions: incubation time: 72 h
Summary of the method: (§2)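 Breast cancer cell lines (20 µl suspension) were seeded into 384-well plates holding compound at 5 concentrations in 10-fold steps over a compound-specific 10,000-fold range, then incubated 72 h. CellTox Green fluorescence (485/520 nm) was read first, then CellTiter-Glo luminescence after 10 min at room temperature. Each plate was normalised to 0.1 % DMSO and a positive kill control. The drug sensitivity score was calculated from the area under the fitted dose-response curve.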

SMILES | drug sensitivity score
Oc1ncnc2[nH]ncc12 [Allopurinol] | 0
O=C1CN2Cc3c(ccc(Cl)c3Cl)N=C2N1 [Anagrelide] | 0
CC(=O)N(O)CCCCCNC(=O)CCC(=O)N(O)CCCCCNC(=O)CCC(=O)N(O)CCCCCN [Deferoxamine] | 0
C[C@]12CC[C@@H]3c4ccc(OC(=O)N(CCCl)CCCl)cc4CC[C@H]3[C@@H]1CC[C@@H]2O [Estramustine] | 0
CC(=O)c1c(C)c2cnc(Nc3ccc(N4CCNCC4)cn3)nc2n(C2CCCC2)c1=O [Palbociclib] | 0
CC[C@@H]1C(=O)OC[C@@H]1Cc1cncn1C [Pilocarpine] | 0

system: MDA-MB-468; assay: as above; conditions: incubation time: 72 h
Summary of the method: as §2

SMILES | drug sensitivity score
CC1(C)CCC(CN2CCN(c3ccc(C(=O)NS(=O)(=O)c4ccc(NCC5CCOCC5)c([N+](=O)[O-])c4)c(Oc4cnc5[nH]ccc5c4)c3)CC2)=C(c2ccc(Cl)cc2)C1 [ABT-199] | 13.3
Oc1ncnc2[nH]ncc12 [Allopurinol] | 0
O=C1CN2Cc3c(ccc(Cl)c3Cl)N=C2N1 [Anagrelide] | 0
CC1=C2C[C@H]3[C@@H](CC=C4C[C@@H](O)CC[C@@]43C)[C@@H]2CC[C@]12O[C@@H]1C[C@H](C)CN[C@H]1[C@H]2C [Cyclopamine] | 0
CC(=O)N(O)CCCCCNC(=O)CCC(=O)N(O)CCCCCNC(=O)CCC(=O)N(O)CCCCCN [Deferoxamine] | 0
C[C@]12CC[C@@H]3c4ccc(OC(=O)N(CCCl)CCCl)cc4CC[C@H]3[C@@H]1CC[C@@H]2O [Estramustine] | 3.38
